Assay results: patent US20180156826A1, “COMPOSITIONS AND METHODS FOR DIAGNOSIS OF AUTISM SPECTRUM DISORDER” (The Board of Regents of the University of Texas System, priority 2015, published 2018)
Square brackets hold non-standard residues; d marks the D form. Peptide text beside a SMILES is read from it. ξ: configuration not given here. N(3,4-(MeO)2phenethyl)Gly = COc1ccc(CCNCC(=O)O)cc1OC; Gly(N-(CH2)3OMe) = COCCCNCC(=O)O; Gly(N-cHex) = O=C(O)CNC1CCCCC1; Nleu = CC(C)CNCC(=O)O; Nme = COCCNCC(=O)O; ξC = NC(CS)C(=O)O

Tests used:
serum IgG1 = experiment: Peptoid ELISA, IgG1 subclass detection; assay type: binding, human
Method: (§1) Peptoid compounds were immobilized onto maleimide-activated 96-well plates (Pierce Biotechnology, Rockford, Ill.) by dissolving them to 0.03-0.05 mM in a 0.1 M sodium phosphate, 0.15 M sodium chloride, 10 mM EDTA solution adjusted to pH 7.2 and incubating with shaking for 3 hrs at RT. Plates were washed with PBST and blocked with a 5% goat serum (Thermo Scientific, Rockford, Ill.) in PBST solution for 1 hr at RT. Plates were washed again and incubated with target (serum) samples diluted in blocking buffer (1:1 PBST-1% BSA and SuperBlock) for 2 hrs at RT. After washing, plates were incubated with Goat anti-Human IgG-Fc-HRP conjugate (Bethyl Laboratories, Montgomery, Tex.) diluted 1:30,000 in PBST-1% BSA or mouse anti-human IgG1 (hinge)-HRP conjugate (SouthernBiotech, Birmingham, Ala.) diluted 1:1000 in PBST-1% BSA for 30 min at RT. After another wash, plates were incubated in TMB substrate for 16 min at RT and stopped with 2M H2SO4. Plates were read at 450 nm. All samples were run in duplicate, and every assay contained ASD and TD serum pool samples to serve as internal controls. Results for individual samples were assessed as ratios to the ASD serum pool so as to control for plate-to-plate variation.

serum IgG = experiment: Peptoid ELISA, total IgG detection with serum pools; assay type: binding, human; conditions: pooled serum of 10 TD males vs 10 ASD males
Method: as §1
Using the same two serum pools as used during screening, the “hit” peptoids were then tested by ELISA for their ability to bind IgG from the two pools. […]

ASD1 binding, ASD females (serum IgG1; ASD female serum samples, n=10): 1.76±0.81 | ASD1 binding, TD females (serum IgG1; TD female serum samples, n=20): 1.97±0.38 | ASD1 binding of IgG1 from ASD males (serum IgG1; individual ASD male serum samples, n=50, 1:100 dilution, ratio of sample absorbance to control serum pool, error SEM): 1.33±0.31 | ASD1 binding of IgG1 from TD males (serum IgG1; individual TD male serum samples, n=43, 1:100 dilution, ratio of sample absorbance to control serum pool, error SEM): 2.88±0.55 | differentiation in binding between the serum pools, secondary antibody specific to IgG1 subclass (serum IgG1; pooled serum of 10 TD males vs 10 ASD males): nearly four-fold | differentiation in binding between the serum pools, total IgG (serum IgG): two-fold
Compound: COCCCN(CC(=O)N(CCc1ccc(OC)c(OC)c1)CC(=O)N(CC(=O)N(CC(=O)N(CCCOC)CC(=O)N(CC(=O)N(CCOC)CC(=O)NC(CS)C(N)=O)C1CCCCC1)CC(C)C)C1CCCCC1)C(=O)CNCCc1ccc(OC)c(OC)c1 (stereo not shown) [ASD1] (H-[N(3,4-(MeO)2phenethyl)Gly][Gly(N-(CH2)3OMe)][N(3,4-(MeO)2phenethyl)Gly][Gly(N-cHex)][Nleu][Gly(N-(CH2)3OMe)][Gly(N-cHex)][Nme][ξC]-NH2)
ASD1 binding of IgG1 from older adult males (serum IgG1; older adult male serum, n=53, compared with ASD and TD males): did not differ from that of the ASD males, but was significantly lower than that of the TD males
